Measurements reported in PMC12731536, “Sc(III) Complexes of Pyclen Derivative Ligands as Probes for Hypoxia: Synthesis, Chemical Characterization, ^44Sc‐Radiolabeling, and Preclinical Assessment” (Chemistry (Weinheim an Der Bergstrasse, Germany), 2025).

How the values were obtained:
[1] = test system: healthy control and B16‐F10 melanoma cell‐bearing mice; experiment: Ex vivo biodistribution studies; type: in vivo; conditions: for B16‐F10 tumor uptake: 14 days after cancer cell inoculation, n = 5 tumor‐bearing mice
Source text: (§1) All animal experiments confirmed to all applicable sections of the Hungarian Laws and the directions and regulations of the European Union, and the in vivo studies have been ethically approved by the Ethics Committee for Animal Experimentation of the University of Debrecen (license number: 16/2020/DEMÁB). C57BL/6 male mice (n = 32, older than 12 weeks, approx. 20 grams) obtained from Charles River Animalab Ltd. (Budapest, Hungary) were used for in vivo PET studies and biodistribution assays. To induce tumor models, 20 mice were subcutaneously transplanted with approximately 3x10^6 tumor cells (in 100 µL physiological saline) at the left shoulder area. Tumor growth was regularly monitored by using caliper measurements. During tumor generation inhalation anesthesia was induced using 3% isoflurane (Forane, AbbVie, Chicago, IL, USA), 0.4 L/min O2, and 0.8 L/min N2O.
To evaluate the organ distribution of the novel ^44Sc‐labeled radiotracers, ex vivo biodistribution experiments were additionally performed. Healthy control and tumor‐bearing mice were administered with approximately 5–7 MBq of [^44Sc][Sc(PC2AM‐NI)]^+ or [^44Sc][Sc(PC2A‐Ph‐NI)]^+ and at 90 ‐ and 240‐minutes post injection, all of them were put to death. Organs and tissues of interest were collected, weighed wet, and γ‐counted (Perkin‐Elmer Packard 406 Cobra, Waltham, MA, USA). After decay correction, the radioactivity of each tissue and organ was calculated as %ID/g.

[2] = test system: B16‐F10 tumor‐bearing C57BL/6 mice; experiment: In vivo PET studies (MiniPET‐II); conditions: n = 5
Source text: The B16‐F10 mouse melanoma cell line (MC1‐R positive) was the kind gift of the Department of Immunology, Faculty of Medicine, University of Debrecen (Debrecen, Hungary). The cells were routinely cultivated according to the manufacturer's protocols using Dulbecco's Modified Eagle's medium (DMEM, Merck Life Science Ltd., Budapest, Hungary) supplemented with 1% (v/v) MEM Non‐Essential Amino Acid solution (Merck Life Science Ltd.), 1% MEM Vitamins solution (Merck Life Science Ltd.), 10% Fetal Bovine Serum (FBS, GIBCO Life Technologies, Billings, MT, USA), and 1% Antibiotic and Antimicotic solution (Merck Life Science Ltd.) at 37 °C in a humidified atmosphere containing 5% CO2. For tumor induction the cells were used at 85% confluence. Cell viability was determined by applying trypan blue exclusion assay. Those cells were used for subsequent experiments where the staining confirmed that more than 90% of them were viable.
as §1
Preclinical PET studies were performed on the MiniPET‐II scanner of the Department of Nuclear Medicine and Translational Imaging, Institute of Medical Imaging, Faculty of Medicine, University of Debrecen (Debrecen, Hungary). Fourteen days post tumor induction, tumor‐bearing mice (n = 20) were anesthetized (see above) and tail vein injected with approximately 5–7 MBq of [^44Sc][Sc(PC2AM‐NI)]^+ or [^44Sc][Sc(PC2A‐Ph‐NI)]^+. After a 90 ‐ and a 240‐minutes awake incubation period, the mice were re‐anesthetized and 20‐minutes static PET scans were taken. To quantify radiopharmaceutical uptake, followed by image reconstruction (3D ordered‐subsets expectation‐maximization algorithm (3D‐OSEM)), volumes of interest (VOIs) were manually outlined on the tumors and on the hindlimb muscle tissue as a reference region. Using a dedicated imaging analysis software: BrainCAD image analysis software (version: 1.12‐bulid3), mean standardized uptake values (SUVmean) were determined with the following equation: SUV = [VOI activity (Bq/mL)]/[injected activity (Bq)/animal weight (g)]. To assess image contrast, tumor‐to‐off‐target ratios (tumor‐to‐muscle ratio/T/M) were also calculated.

SMILES: O=C([O-])CN1CCN(CC(=O)NCCCCCCn2ccnc2[N+](=O)[O-])CCN(CC(=O)[O-])Cc2cccc(n2)C1.[44Sc+3] [[^44Sc][Sc(PC2AM‐NI)]^+]
- Blood uptake ([1]; 90 minutes post injection): 0.09 ± 0.02 %ID/g
- Bone uptake ([1]; 90 minutes post injection): 0.02 ± 0.00 %ID/g
- Brain uptake ([1]; 90 minutes post injection): 0.01 ± 0.01 %ID/g
- Fat uptake ([1]; 90 minutes post injection): 0.05 ± 0.02 %ID/g
- Heart uptake ([1]; 90 minutes post injection): 0.04 ± 0.01 %ID/g
- Kidney uptake ([1]; 90 minutes post injection): 0.83 ± 0.29 %ID/g
- Liver uptake ([1]; 90 minutes post injection): 1.55 ± 1.66 %ID/g
- Lung uptake ([1]; 90 minutes post injection): 0.10 ± 0.02 %ID/g
- Muscle uptake ([1]; 90 minutes post injection): 0.02 ± 0.00 %ID/g
- Pancreas uptake ([1]; 90 minutes post injection): 0.04 ± 0.02 %ID/g
- Spleen uptake ([1]; 90 minutes post injection): 0.07 ± 0.02 %ID/g
- Stomach uptake ([1]; 90 minutes post injection): 0.09 ± 0.02 %ID/g
- Urine activity ([1]; 90 minutes post injection): 77.19 ± 37.26 %ID/g
- gall bladder uptake ([1]; 90 minutes post injection): 42.46 ± 33.31 %ID/g
- large intestines uptake ([1]; 90 minutes post injection): 0.10 ± 0.07 %ID/g
- salivary gland uptake ([1]; 90 minutes post injection): 0.03 ± 0.00 %ID/g
- small intestines uptake ([1]; 90 minutes post injection): 0.92 ± 0.33 %ID/g
- B16‐F10 tumor uptake ([1]; 90 minutes post injection): 0.27 ± 0.07 %ID/g
- Blood uptake ([1]; 240 minutes post injection): 0.02 ± 0.01 %ID/g
- Bone uptake ([1]; 240 minutes post injection): 0.01 ± 0.00 %ID/g
- Brain uptake ([1]; 240 minutes post injection): 0.01 ± 0.00 %ID/g
- Fat uptake ([1]; 240 minutes post injection): 0.01 ± 0.00 %ID/g
- Heart uptake ([1]; 240 minutes post injection): 0.01 ± 0.00 %ID/g
- Kidney uptake ([1]; 240 minutes post injection): 0.60 ± 0.37 %ID/g
- Liver uptake ([1]; 240 minutes post injection): 0.90 ± 1.01 %ID/g
- Lung uptake ([1]; 240 minutes post injection): 0.03 ± 0.01 %ID/g
- Pancreas uptake ([1]; 240 minutes post injection): 0.01 ± 0.00 %ID/g
- Spleen uptake ([1]; 240 minutes post injection): 0.03 ± 0.02 %ID/g
- Stomach uptake ([1]; 240 minutes post injection): 0.04 ± 0.03 %ID/g
- Urine activity ([1]; 240 minutes post injection): 5.44 ± 1.23 %ID/g
- gall bladder uptake ([1]; 240 minutes post injection): 15.82 ± 13.89 %ID/g
- large intestines uptake ([1]; 240 minutes post injection): 0.12 ± 0.12 %ID/g
- salivary gland uptake ([1]; 240 minutes post injection): 0.01 ± 0.01 %ID/g
- small intestines uptake ([1]; 240 minutes post injection): 0.20 ± 0.10 %ID/g
- B16‐F10 tumor uptake ([1]; 240 minutes post injection): 0.17 ± 0.07 %ID/g
- B16‐F10 SUVmean ([2]; 90 minutes post injection): 0.08 ± 0.02
- T/M ratio (tumor‐to‐muscle) ([2]; 90 minutes post injection): 4.04 ± 0.02
- muscle SUVmean ([2]; 90 minutes post injection): 0.02 ± 0.01
- B16‐F10 SUVmean ([2]; 240 minutes post injection): 0.04 ± 0.02
- T/M ratio (tumor‐to‐muscle) ([2]; 240 minutes post injection): 4.02 ± 0.02
- muscle SUVmean ([2]; 240 minutes post injection): 0.01 ± 0.01
